# In PMC10502144, “Anti-methicillin-resistant Staphylococcus aureus activity and safety evaluation of 14-O-[(5-ethoxycarbonyl-4,6-dimethylpyrimidine-2-yl) thioacetyl] mutilin (EDT)” (Scientific Reports, 2023):
# Like-named read-outs stand apart in the source and are kept apart here. Marks after values point to notes of the source that are not given here.
# Tests used:
# [1] = tested on: Salmonella Typhimurium TA1535
# Description: (§1) Before the test, Salmonella Typhimurium (S. Typhimurium) TA97a, TA98, TA100, TA102, TA1535 and Escherichia coli WP2uvrA pKM101 (pKM101) were first checked for their genetic integrity, including biotin dependence, rfa marker (crystal violet), biotin, histidine dependence and presence of the plasmid pKM101 (ampicillin resistance) or pAQ1 (tetracycline resistance). […] The maximum concentration of EDT was also screened using a preliminary experiment.
# (§2) DMSO (0.1 mL) was directly incorporated into 1.9 mL melted top agar as the vehicle control. […] Each strain (0.1 mL, 6–7 log10 CFU/mL) was added into 2 mL of top agar in which comprised 0.5 mL S9 (10%), serial concentrations of EDT (2000, 400, 80, 16 and 3.2 μg/plate), DMSO or control chemicals for testing with the S9. For testing without S9, 0.5 mL phosphate buffer saline (PBS, pH 7.4) replaced the S9 mix. Then, the obtained top agar was melted, poured onto the surface of […] and swirled to distribute the top agar to all surfaces of medium, followed by incubation at 37 °C for 48 h. The resultant colonies were counted manually as the number of revertant colonies per plate. The experiments were performed in triplicate and the results were expressed as the average ± SD.
# [2] = tested on: Salmonella Typhimurium TA97a; experiment: Ames test, TA97a; conditions: positive control 50 μg/plate, −S9
# Description: as §1, §2
# [3] = tested on: Salmonella Typhimurium TA98; experiment: Ames test, TA98; conditions: TA98, positive control 50 μg/plate, −S9
# Description: as §1, §2
# [4] = tested on: Salmonella Typhimurium TA102; experiment: Ames test, TA102; conditions: TA102, positive control 50 μg/plate, −S9
# Description: as §1, §2
# [5] = tested on: Salmonella Typhimurium TA100; experiment: Ames test, TA100; type: cell-based; conditions: TA100, positive control 1μL/plate, −S9
# Description: as §1, §2
# [6] = tested on: Escherichia coli WP2uvrA pKM101; experiment: Ames test, pKM101
# Description: as §1, §2
compound,measurement,setting,value
"Nc1ccc2cc3ccccc3cc2c1 [2-aminoanthracene, reference compound]",number of revertant colonies per plate,"[1]; TA1535, positive control 10 μg/plate, +S9",740.00 ± 44.00^d
"CN(C)c1ccc(N=NS(=O)(=O)[O-])cc1.[Na+] [diaxone, reference compound]",number of revertant colonies per plate,[2],2472.00 ± 94.00^b
same,number of revertant colonies per plate,[3],972.00 ± 37.00^b
same,number of revertant colonies per plate,[4],522.00 ± 45.00^b
"[N-]=[N+]=[N-].[Na+] [sodium azide, reference compound]",number of revertant colonies per plate,"[1]; TA1535, positive control 1.5 μg/plate, −S9",534.33 ± 38.67^e
methyl sulfonate [reference compound],number of revertant colonies per plate,[5],1017.33 ± 39.67^c
same,number of revertant colonies per plate,[6],644.00 ± 38.00^c
